Test results: patent US20130079345A1, “[…] ACTIVE DISUBSTITUTED TRIAZINE DERIVATIVES” (BAYER INTELLECTUAL PROPERTY GMBH, priority 2010, published 2013)
Structures can show the parent of a compound that is named as a salt.

Tests used:
[1] = target: T1, CDK9/Cyclin T1 (Homo sapiens, UniProt P50750); assay: LanthaScreen Eu Kinase Binding Assay, CDK9/Cyclin T1; settings: tracer 236, read-out: Affinity (Kd) CDK9/Cyclin T1
T1 construct: purchased Invitrogen
How it was run: (§1)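 TR-FRET competition binding with Alexa Fluor 647 tracer and Eu-anti-GST antibody; e.g. CDK2/Cyclin A 15 nM with tracer 236 60 nM (working solutions). Kinase buffer: HEPES 20 mM pH 8.0, MgCl2 10 mM, DTT 1 mM, Brij-35 0.01%; 8-point 1:3 series, 1 h at room temperature; Kd from sigmoidal dose-response curves.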

[2] = target: T2, CDK9 (Homo sapiens, UniProt P50750); assay: Lance Ultra KinaSelect Assay, CDK9; format: biochemical; settings: read-out: Inhibition (IC50) CDK9
T2 construct: purchased Invitrogen
T2 sequence (P50750 whole entry): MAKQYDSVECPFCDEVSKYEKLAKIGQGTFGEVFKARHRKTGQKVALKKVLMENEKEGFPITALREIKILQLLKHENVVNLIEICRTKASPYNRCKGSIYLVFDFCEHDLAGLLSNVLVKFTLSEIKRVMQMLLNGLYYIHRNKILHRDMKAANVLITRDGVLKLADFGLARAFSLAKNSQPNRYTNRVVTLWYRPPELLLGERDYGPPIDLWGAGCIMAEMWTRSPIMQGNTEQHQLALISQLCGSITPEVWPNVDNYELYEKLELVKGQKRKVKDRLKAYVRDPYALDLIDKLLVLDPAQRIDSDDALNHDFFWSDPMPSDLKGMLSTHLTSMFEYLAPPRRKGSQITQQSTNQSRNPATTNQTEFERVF
Method: (§2) This protocol describes how the Lance Ultra KinaSelect Assay was performed to determine half maximal inhibitory concentration (IC50) of compounds of general formula (I) and CDK/Cyclin complexes. The principle behind this enzymatic assay is based upon the phosphorylation of the ULight-Peptide Substrat. It is detected by using a specific EU-labeled anti-phospho peptide antibody. The binding of the Eu-labeled anti-phospho peptide antibody to the phosphorylated U Light labeled peptide gives rise to a FRET-signal. Binding of an inhibitor to the kinase prevents phosphorylation of the ULight-MBP Substrat, resulting in a loss of FRET.
(§3) The compounds of general formula (I) summarized in Table 5 were diluted from a 10 mM DMSO stock solution 1:10 in a total volume of 15 μL DMSO. This compound predilution was then serial diluted 1:3 over 8 steps in DMSO and briefly spun down. Each compound solution was now diluted 1:20 in Enzymatic Buffer (HEPES: 50 mM, pH: 7.5; MgCl2: 10 mM; EGTA: 1 mM; DTT: 2 mM; Tween-20: 0.01%), mixed thoroughly and spun down. For every sample, 2 μL of the diluted compound were mixed with 6 μL CDK/Cyclin/Substrat solution and […] in a well of a small volume 384 well plate (Corning Incorporated, Corning, N.Y., USA; order no. 3673). […] For positive controls, in each well 2 μL of DMSO solution (1% final DMSO assay concentration) was mixed with 6 μL CDK/Cyclin/Substrat (appropriate final concentration see Table 3) and 2 μL Tracer ATP solution (appropriate final concentration see Table 3). Positive and negative controls were calculated from at least 8 different sample wells. The 384 well plates were mixed in a Teleshaker plate mixer (Beckman Coulter, Brea, Calif., USA) at 2000 rpm for 40 sec, and incubated for 1 h at room temperature. Before reading, 10 μL detection buffer (Lance Detection Buffer 1×; EDTA: […]; Eu-Anti-P-MBP: see Table 3) was added. The FRET signal was measured at 340 nm excitation, 665 nm and 615 nm emission (for the kinase tracer and LanthaScreen Eu-AB, respectively) with an Envision spectrophotometer (Perkin Elmer, Waltham, Mass., USA) with 50 μs delay and 300 μs integration time. IC50 values were determined from the sigmoidal dose response curves with the software Quattro Workflow (Quattro GmbH, Munich, Germany).

[3] = target: T3, CDK6/CyclinD3 (Homo sapiens, UniProt Q00534); assay: Lance Ultra KinaSelect Assay, CDK6; format: biochemical; settings: read-out: Inhibition (IC50) CDK6
T3 construct: purchased Carna
T3 sequence (Q00534 whole entry): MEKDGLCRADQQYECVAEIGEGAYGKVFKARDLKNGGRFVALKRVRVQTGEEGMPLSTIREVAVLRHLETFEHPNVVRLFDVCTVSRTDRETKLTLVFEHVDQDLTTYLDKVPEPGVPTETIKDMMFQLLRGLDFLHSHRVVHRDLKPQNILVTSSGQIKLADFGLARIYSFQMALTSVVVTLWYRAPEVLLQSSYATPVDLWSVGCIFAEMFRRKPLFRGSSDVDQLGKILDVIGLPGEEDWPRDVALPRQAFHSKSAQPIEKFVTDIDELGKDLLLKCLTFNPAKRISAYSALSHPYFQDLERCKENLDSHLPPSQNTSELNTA
T3 sequence (P30281 whole entry partner): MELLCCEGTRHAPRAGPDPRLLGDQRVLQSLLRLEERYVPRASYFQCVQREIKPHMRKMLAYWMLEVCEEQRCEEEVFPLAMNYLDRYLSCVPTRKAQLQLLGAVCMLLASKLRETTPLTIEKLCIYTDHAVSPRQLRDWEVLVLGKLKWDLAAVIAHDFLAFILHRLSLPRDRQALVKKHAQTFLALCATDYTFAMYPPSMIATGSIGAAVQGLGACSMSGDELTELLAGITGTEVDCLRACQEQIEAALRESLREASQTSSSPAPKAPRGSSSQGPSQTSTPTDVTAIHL
Method: as §2, §3

[4] = test system: LPS-induced TNF alpha release in PBMCs; assay: TNF alpha release assay; format: cell-based; settings: Homo sapiens, PBMC, 6 h, 1 μg/mL LPS
Method: Freshly isolated peripheral blood mononuclear cells (PBMCs) were seeded in 96-well cell culture plates with 200,000 cells in 100 μl cell culture medium (DMEM cell culture medium+glutamine from PAN Biotech GmbH, Aidenbach, Germany) supplemented with 10% fetal calf serum (PAA Laboratories GmbH, Pasching, Austria) per well and incubated overnight at 37° C., 5% CO2. To each well, 100 μL cell culture medium with 2× concentrated test compounds diluted from 10 mM DMSO stocks, or 100 μL DMEM with 0.4% DMSO for control wells, was added. The compounds of general formula (I) summarized in Table 6 were used in this assay. After incubation for 1 h at 37° C., 5% CO2, cells were stimulated with 1 μg/mL LPS (Lipopolysaccharides, Sigma, catalog #L4391-1MG; 1 mg/ml stock solution), or left untreated for negative controls, and plates were incubated for 6 h at 37° C./5% CO2. The cell culture plates were centrifuged at 2000 rpm for 5 minutes, and supernatants were transferred to fresh 96-well polypropylene plates. 25 µL of supernatants were transferred into 96-well-plates of the human TNF alpha-tissue culture kit (Meso Scale Discovery, Gaithersburg, Md., USA), and manufacturer's instructions were followed for analysis of TNF alpha levels. Chemoluminescence was measured in the Mesoscale Sector Imager, and EC50 values were calculated with the software Excel Fit (IDBS, Guildford, UK) from 2-fold dilution series comprising at least 6 concentrations in duplicates.

[5] = target: T4, CDK7/CyclinH/Mat1 (Homo sapiens, UniProt P50613); assay: LanthaScreen Eu Kinase Binding Assay, CDK7; settings: tracer 236, read-out: Affinity (Kd) CDK7
T4 construct: purchased Carna Biosciences
T4 sequence (P50613 whole entry): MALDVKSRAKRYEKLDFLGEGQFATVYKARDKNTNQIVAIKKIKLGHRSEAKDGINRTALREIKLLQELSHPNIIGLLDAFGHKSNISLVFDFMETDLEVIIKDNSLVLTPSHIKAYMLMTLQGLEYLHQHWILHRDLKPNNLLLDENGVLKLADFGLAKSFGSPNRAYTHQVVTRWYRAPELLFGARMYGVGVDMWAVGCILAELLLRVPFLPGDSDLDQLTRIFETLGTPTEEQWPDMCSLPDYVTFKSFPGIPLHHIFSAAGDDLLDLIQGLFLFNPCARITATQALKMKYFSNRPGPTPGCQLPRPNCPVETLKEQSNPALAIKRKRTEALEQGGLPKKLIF
T4 sequence (P51946 whole entry partner): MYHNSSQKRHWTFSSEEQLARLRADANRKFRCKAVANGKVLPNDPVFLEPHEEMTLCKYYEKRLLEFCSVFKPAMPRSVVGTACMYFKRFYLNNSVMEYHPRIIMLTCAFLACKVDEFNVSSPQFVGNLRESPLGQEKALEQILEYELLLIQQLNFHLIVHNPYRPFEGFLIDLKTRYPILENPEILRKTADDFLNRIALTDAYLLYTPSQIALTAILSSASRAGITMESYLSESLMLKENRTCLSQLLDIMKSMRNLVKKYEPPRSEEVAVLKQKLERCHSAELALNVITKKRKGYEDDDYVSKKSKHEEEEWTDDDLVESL
T4 sequence (P51948 whole entry partner): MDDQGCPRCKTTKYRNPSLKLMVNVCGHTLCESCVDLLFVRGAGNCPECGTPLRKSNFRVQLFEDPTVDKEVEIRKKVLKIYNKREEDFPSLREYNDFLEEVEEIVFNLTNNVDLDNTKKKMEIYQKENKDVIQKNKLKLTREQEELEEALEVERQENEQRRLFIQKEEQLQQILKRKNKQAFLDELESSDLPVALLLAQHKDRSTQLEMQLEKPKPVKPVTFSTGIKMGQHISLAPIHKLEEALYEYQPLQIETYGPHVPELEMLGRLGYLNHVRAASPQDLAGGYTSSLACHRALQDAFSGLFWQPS
How it was run: as §1

T1 sequence (P50750 whole entry): as the sequence (P50750 whole entry) above
T1 sequence (O60563 whole entry partner): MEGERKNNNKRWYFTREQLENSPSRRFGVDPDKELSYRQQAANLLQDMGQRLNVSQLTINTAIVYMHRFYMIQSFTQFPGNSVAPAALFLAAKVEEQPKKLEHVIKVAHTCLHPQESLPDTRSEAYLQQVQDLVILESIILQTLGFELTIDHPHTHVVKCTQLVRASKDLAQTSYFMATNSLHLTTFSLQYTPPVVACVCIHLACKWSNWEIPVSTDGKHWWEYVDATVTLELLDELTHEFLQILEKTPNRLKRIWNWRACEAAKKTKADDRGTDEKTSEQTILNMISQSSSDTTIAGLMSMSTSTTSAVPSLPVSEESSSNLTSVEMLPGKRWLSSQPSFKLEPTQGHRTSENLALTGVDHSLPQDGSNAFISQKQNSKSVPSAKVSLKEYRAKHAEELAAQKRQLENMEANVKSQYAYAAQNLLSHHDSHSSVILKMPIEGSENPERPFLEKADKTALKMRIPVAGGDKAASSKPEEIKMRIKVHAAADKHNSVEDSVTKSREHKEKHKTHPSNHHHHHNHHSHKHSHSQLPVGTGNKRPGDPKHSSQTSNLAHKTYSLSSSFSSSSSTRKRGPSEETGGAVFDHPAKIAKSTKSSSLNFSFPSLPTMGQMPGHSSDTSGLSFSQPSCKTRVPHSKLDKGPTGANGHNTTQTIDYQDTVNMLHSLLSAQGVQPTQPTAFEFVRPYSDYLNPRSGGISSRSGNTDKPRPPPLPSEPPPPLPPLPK

| Kd [1] [nM] | IC50 [2] [nM] | IC50 [3] [nM] | Kd [5] [nM] | SMILES | IC50 [4] [nM] |
| --- | --- | --- | --- | --- | --- |
| 6.6 | 11.6 | > 10000 |  | COc1cc(F)ccc1-c1ncnc(Nc2cccc(CS(N)(=O)=O)c2)n1 [B2″, 1-(3-{[4-(4-fluoro-2-methoxyphenyl)-1,3,5-triazin-2-yl]amino}phenyl)methanesulfonamide trifluoroacetic acid salt] |  |
| < 5 | 20.7 | > 10000 | > 10000 | COc1ccccc1-c1ncnc(Nc2cccc(S(N)(=O)=O)c2)n1 [C1′, 3-[(4-(2-Methoxyphenyl)-1,3,5-triazin-2-yl)amino]benzenesulfonamide trifluoroacetic acid salt] | 500 |
| 5 |  |  | > 10000 | COc1ccccc1-c1ncnc(Nc2cccc(CS(N)(=O)=O)c2)n1 [Compound B1, 3-[(4-(2-Methoxyphenyl)-1,3,5-triazin-2-yl)amino]benzenemethanesulfonamide] |  |
| 5 | 10.6 |  | > 10000 | COc1cc(F)ccc1-c1ncnc(Nc2cccc(CS(N)(=O)=O)c2)n1 [Compound B2, 3-[(4-(4-Fluoro-2-methoxyphenyl)-1,3,5-triazin-2-yl)amino]benzenemethanesulfonamide] | 1030 |
| 54 | 201 | > 10000 | > 10000 | COc1cccc(F)c1-c1ncnc(Nc2cccc(CS(N)(=O)=O)c2)n1 [Compound B4, 3-[(4-(6-Fluoro-2-methoxyphenyl)-1,3,5-triazin-2-yl)amino]benzenemethanesulfonamide] | 6530 |
| < 5 | 9 | > 10000 | > 10000 | NS(=O)(=O)Cc1cccc(Nc2ncnc(-c3ccccc3OCc3ccncc3)n2)c1 [Compound B16, 3-[(4-(2-((4-Pyridinyl)methoxy)phenyl)-1,3,5-triazin-2-yl)amino]benzenemethanesulfonamide] |  |
| 126 | 937 |  | > 30000 | COc1ccccc1-c1ncnc(Nc2ccccc2)n1 [Compound P1, 4-(2-Methoxyphenyl)-N-phenyl-1,3,5-triazine-2-amine] | 13900 |

Further lines, the compound ahead of its results:

| SMILES | Kd [1] [nM] | IC50 [2] [nM] | IC50 [3] [nM] | Kd [5] [nM] | IC50 [4] [nM] |
| --- | --- | --- | --- | --- | --- |
| COc1ccccc1-c1ncnc(Nc2cccc(CS(N)(=O)=O)c2)n1 [B1′, 3-[(4-(2-Methoxyphenyl)-1,3,5-triazin-2-yl)amino]benzenemethanesulfonamide trifluoroacetic acid salt] | 7.6 | 96.5 | > 10000 |  | 2710 |
| COc1cc(F)ccc1-c1ncnc(Nc2cccc(CS(N)(=O)=O)c2)n1 [B2′, 1-(3-{[4-(4-fluoro-2-methoxyphenyl)-1,3,5-triazin-2-yl]amino}phenyl)methanesulfonamide hydrochloride] | 5.6 | 10.4 |  |  |  |
| NS(=O)(=O)Cc1cccc(Nc2ncnc(-c3ccccc3OCc3ccccc3)n2)c1 [B13′, 3-[(4-(2-Benzyloxyphenyl)-1,3,5-triazin-2-yl)amino]benzenemethanesulfonamide trifluoroacetic acid salt] | 5.5 | 5.7 | > 10000 |  | 120 |
| COc1ccc(F)cc1-c1ncnc(Nc2cccc(CS(N)(=O)=O)c2)n1 [Compound B3, 3-[(4-(5-Fluoro-2-methoxyphenyl)-1,3,5-triazin-2-yl)amino]benzenemethanesulfonamide] | 16 |  |  | > 10000 | 3240 |
| COc1cc(Cl)ccc1-c1ncnc(Nc2cccc(CS(N)(=O)=O)c2)n1 [Compound B6, 3-[(4-(4-Chloro-2-methoxyphenyl)-1,3,5-triazin-2-yl)amino]benzenemethanesulfonamide] | 11 | 16.2 | > 10000 | > 10000 |  |
| CCOc1ccccc1-c1ncnc(Nc2cccc(CS(N)(=O)=O)c2)n1 [Compound B12, 3-[(4-(2-Ethoxyphenyl)-1,3,5-triazin-2-yl)amino]benzenemethanesulfonamide] | 10 | 102 | > 10000 | > 10000 |  |
| NS(=O)(=O)Cc1cccc(Nc2ncnc(-c3ccccc3OCc3ccccc3)n2)c1 [Compound B13, 3-[(4-(2-Benzyloxyphenyl)-1,3,5-triazin-2-yl)amino]benzenemethanesulfonamide] | 5 |  |  | > 10000 |  |
| NS(=O)(=O)Cc1cccc(Nc2ncnc(-c3ccccc3Oc3ccccc3)n2)c1 [Compound B14, 1-(3-{[4-(2-phenoxyphenyl)-1,3,5-triazin-2-yl]amino}phenyl)methanesulfonamide] | 25.5 | 9 |  | > 10000 |  |
| COc1cnccc1-c1ncnc(Nc2cccc(CS(N)(=O)=O)c2)n1 [Compound B19, 3-[(4-(3-Methoxypyridin-4-yl)-1,3,5-triazin-2-yl)amino]benzenemethanesulfonamide] | 7 |  |  | > 10000 | 10600 |
| COc1ccccc1-c1ncnc(Nc2cccc(CCS(N)(=O)=O)c2)n1 [Compound D1, 2-[3-((4-(2-Methoxyphenyl)-1,3,5-triazin-2-yl)amino)phenyl]ethanesulfonamide] | 32.8 | 139 | > 10000 | > 10000 | 5370 |
| COc1cc(F)ccc1-c1ncnc(Nc2cccc(CCS(N)(=O)=O)c2)n1 [Compound D2, 2-[3-((4-(4-Fluoro-2-methoxyphenyl)-1,3,5-triazin-2-yl)amino)phenyl]ethanesulfonamide] | 9.5 | 12.8 | > 10000 | > 10000 |  |
| COc1ccccc1-c1ncnc(Nc2cccc([N+](=O)[O-])c2)n1 [Compound H1, 4-(2-Methoxyphenyl)-N-(3-nitrophenyl)-1,3,5-triazine-2-amine] | 17.8 | 194 |  | > 30000 | 2920 |
| COc1ccccc1-c1ncnc(Nc2cccc(NS(C)(=O)=O)c2)n1 [Compound K1, N-[3-((4-(2-Methoxyphenyl)-1,3,5-triazin-2-yl)amino)phenyl]-methanesulfonamide] | 38.5 | 72 | > 10000 | > 30000 | 4420 |
| CCCS(=O)(=O)Nc1cccc(Nc2ncnc(-c3ccccc3OC)n2)c1 [Compound L1, N-[3-((4-(2-Methoxyphenyl)-1,3,5-triazin-2-yl)amino)phenyl]-propanesulfonamide] | 45.5 | 111 | > 10000 | > 30000 | 2410 |
